# Where two headings read alike, the source gives them in different places.
# Legend:
# Test in all cases: biochemical
# Design in all cases: Reaction Biology 371-kinase panel at Km ATP, per cent enzyme activity relative to DMSO, single dose in duplicate
# [1] = biological target: ARK5/NUAK1 (Homo sapiens, UniProt O60285); conditions: duplicate measurements, Km ATP; read-out: % Enzyme Activity (relative to DMSO controls) / TP-0005801 (0.3µM) / Data 1
# Outline: (§1)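 In vitro selectivity panel: 371 kinases, inhibitor at 300 nM; % activity vs DMSO; IC50 by variable-slope sigmoidal fit, bottom = 0.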
# [2] = biological target: T1, BRK (Homo sapiens, UniProt Q13882); conditions: duplicate measurements, Km ATP
# T1 construct: gene PTK6
# Outline: as §1
# [3] = biological target: CAMK1g (Homo sapiens, UniProt Q96NX5); conditions: duplicate measurements, Km ATP
# Outline: as §1
# [4] = biological target: CLK2 (Homo sapiens, UniProt P49760); conditions: duplicate measurements, Km ATP
# Outline: as §1
# [5] = biological target: COT1/MAP3K8 (Homo sapiens, UniProt P41279); conditions: duplicate measurements, Km ATP
# Outline: as §1
# [6] = biological target: CSK (Homo sapiens, UniProt P41240); conditions: duplicate measurements, Km ATP
# Sequence of CSK (P41240 whole entry): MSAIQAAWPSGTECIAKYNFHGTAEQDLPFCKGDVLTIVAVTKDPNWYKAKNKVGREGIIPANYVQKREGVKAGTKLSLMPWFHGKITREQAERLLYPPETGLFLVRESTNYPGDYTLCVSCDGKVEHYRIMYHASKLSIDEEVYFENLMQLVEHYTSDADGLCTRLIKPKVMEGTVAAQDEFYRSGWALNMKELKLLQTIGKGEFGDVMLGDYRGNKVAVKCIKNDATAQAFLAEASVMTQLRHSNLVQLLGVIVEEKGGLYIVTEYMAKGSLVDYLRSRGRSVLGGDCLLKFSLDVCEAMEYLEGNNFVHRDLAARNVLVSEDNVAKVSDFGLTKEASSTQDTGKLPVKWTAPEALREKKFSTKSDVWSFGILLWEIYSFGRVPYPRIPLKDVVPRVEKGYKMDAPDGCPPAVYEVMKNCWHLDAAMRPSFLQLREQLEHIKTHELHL
# Outline: as §1
# [7] = biological target: EPHA5 (Homo sapiens, UniProt P54756); conditions: duplicate measurements, Km ATP
# Outline: as §1
# [8] = biological target: FGFR3 (Homo sapiens, UniProt P22607); conditions: duplicate measurements, Km ATP
# Outline: as §1
# [9] = biological target: HIPK4 (Homo sapiens, UniProt Q8NE63); conditions: duplicate measurements, Km ATP
# Outline: as §1
# [10] = biological target: IRAK4 (Homo sapiens, UniProt Q9NWZ3); conditions: duplicate measurements, Km ATP
# Sequence of IRAK4 (Q9NWZ3 whole entry): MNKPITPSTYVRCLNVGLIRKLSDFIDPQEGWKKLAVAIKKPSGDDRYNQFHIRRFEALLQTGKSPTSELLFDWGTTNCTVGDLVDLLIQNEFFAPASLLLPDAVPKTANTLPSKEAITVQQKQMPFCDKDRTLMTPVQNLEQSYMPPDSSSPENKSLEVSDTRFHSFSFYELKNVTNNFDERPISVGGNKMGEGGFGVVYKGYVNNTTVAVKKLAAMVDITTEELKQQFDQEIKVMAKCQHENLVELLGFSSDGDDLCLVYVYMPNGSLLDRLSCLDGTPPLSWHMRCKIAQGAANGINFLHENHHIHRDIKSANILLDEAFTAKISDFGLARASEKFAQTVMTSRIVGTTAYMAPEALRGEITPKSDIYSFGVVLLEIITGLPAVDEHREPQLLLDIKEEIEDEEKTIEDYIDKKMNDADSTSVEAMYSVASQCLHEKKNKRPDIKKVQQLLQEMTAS
# Outline: as §1
# [11] = biological target: MARK1 (Homo sapiens, UniProt Q9P0L2); conditions: duplicate measurements, Km ATP
# Sequence of MARK1 (Q9P0L2 whole entry): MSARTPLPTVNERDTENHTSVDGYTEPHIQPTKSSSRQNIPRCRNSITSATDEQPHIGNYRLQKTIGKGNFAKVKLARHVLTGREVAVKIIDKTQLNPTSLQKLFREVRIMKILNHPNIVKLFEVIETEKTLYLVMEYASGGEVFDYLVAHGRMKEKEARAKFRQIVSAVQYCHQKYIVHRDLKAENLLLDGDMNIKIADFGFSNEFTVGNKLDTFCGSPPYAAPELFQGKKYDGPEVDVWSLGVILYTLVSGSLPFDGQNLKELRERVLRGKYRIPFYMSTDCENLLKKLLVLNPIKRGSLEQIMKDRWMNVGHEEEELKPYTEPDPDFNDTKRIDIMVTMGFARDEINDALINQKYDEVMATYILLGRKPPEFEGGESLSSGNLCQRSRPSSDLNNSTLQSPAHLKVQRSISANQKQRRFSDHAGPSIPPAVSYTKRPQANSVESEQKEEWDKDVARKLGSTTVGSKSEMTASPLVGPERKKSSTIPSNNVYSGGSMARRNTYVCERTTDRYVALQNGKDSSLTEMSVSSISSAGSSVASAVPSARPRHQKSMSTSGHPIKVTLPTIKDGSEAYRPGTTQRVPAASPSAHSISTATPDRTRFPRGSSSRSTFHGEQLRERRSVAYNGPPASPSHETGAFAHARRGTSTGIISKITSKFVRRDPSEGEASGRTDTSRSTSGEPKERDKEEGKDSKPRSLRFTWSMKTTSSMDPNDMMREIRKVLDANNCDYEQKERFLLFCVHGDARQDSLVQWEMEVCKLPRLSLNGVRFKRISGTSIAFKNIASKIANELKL
# Outline: as §1
# [12] = biological target: T2, MEKK2 (Homo sapiens, UniProt Q9Y2U5); conditions: duplicate measurements, Km ATP
# T2 construct: gene MAP3K2
# Outline: as §1
# [13] = biological target: MLCK/MYLK (Homo sapiens, UniProt Q15746); conditions: duplicate measurements, Km ATP
# Sequence of MLCK/MYLK (Q15746 whole entry): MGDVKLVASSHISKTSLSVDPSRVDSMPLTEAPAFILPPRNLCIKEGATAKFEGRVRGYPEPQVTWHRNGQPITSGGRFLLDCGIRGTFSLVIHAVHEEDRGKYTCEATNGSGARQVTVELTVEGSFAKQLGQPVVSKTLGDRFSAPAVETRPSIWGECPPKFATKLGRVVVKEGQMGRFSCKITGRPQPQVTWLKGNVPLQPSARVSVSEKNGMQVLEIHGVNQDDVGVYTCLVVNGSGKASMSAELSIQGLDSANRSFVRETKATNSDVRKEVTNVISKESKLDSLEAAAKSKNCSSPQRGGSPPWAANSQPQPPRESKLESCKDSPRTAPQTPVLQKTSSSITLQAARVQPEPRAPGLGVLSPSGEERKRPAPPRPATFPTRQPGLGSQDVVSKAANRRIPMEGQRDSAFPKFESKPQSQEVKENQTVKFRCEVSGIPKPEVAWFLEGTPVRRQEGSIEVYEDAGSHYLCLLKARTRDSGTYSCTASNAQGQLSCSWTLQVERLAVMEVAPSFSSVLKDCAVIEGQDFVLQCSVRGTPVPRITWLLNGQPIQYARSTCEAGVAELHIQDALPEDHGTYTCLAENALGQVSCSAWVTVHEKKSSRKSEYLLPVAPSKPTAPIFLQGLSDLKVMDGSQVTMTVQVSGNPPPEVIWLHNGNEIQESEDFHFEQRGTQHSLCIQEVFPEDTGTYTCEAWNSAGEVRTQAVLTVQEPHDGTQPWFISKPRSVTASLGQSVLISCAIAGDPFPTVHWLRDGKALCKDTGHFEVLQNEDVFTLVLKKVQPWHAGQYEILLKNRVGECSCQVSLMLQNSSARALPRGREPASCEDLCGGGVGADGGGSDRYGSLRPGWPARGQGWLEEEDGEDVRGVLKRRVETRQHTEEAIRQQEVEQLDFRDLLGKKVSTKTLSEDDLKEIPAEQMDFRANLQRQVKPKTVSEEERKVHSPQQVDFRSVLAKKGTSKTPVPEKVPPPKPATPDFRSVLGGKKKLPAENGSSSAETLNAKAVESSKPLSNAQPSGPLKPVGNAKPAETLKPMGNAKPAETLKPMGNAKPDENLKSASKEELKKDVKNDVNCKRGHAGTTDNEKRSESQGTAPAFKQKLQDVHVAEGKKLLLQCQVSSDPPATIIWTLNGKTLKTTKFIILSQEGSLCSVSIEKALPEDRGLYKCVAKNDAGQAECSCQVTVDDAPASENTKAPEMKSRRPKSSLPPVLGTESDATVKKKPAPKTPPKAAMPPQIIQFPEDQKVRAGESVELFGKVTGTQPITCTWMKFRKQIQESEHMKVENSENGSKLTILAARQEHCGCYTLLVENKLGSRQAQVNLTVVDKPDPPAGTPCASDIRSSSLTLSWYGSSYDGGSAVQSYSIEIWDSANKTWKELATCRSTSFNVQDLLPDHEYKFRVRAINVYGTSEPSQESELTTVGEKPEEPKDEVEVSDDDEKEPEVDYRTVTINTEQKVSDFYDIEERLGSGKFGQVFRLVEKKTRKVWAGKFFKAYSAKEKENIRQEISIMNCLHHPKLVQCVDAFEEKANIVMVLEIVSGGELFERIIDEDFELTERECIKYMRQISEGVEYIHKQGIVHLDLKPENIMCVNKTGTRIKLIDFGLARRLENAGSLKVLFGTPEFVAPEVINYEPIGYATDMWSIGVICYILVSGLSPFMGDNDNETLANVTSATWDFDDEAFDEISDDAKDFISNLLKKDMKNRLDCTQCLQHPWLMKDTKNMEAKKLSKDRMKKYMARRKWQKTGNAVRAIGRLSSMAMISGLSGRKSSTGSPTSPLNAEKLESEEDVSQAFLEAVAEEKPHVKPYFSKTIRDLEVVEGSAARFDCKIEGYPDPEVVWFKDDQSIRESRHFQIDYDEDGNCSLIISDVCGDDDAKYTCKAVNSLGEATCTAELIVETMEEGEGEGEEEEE
# Outline: as §1
# [14] = biological target: T3, MNK2 (Homo sapiens, UniProt Q9HBH9); conditions: duplicate measurements, Km ATP
# T3 construct: gene MKNK2
# T3 sequence (Q9HBH9 whole entry): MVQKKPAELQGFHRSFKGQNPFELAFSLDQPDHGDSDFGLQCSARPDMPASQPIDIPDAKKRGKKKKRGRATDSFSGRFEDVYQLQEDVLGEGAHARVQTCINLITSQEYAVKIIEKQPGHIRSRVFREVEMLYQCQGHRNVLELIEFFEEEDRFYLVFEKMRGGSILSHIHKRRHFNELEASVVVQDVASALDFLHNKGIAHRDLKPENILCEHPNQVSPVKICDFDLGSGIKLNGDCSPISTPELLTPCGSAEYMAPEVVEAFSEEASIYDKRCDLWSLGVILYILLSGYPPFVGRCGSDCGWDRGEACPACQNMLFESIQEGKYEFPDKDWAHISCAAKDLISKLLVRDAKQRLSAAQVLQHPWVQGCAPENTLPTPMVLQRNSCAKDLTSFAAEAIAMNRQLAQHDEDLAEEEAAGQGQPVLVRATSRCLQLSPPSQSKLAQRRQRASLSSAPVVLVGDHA
# Outline: as §1
# [15] = biological target: NEK5 (Homo sapiens, UniProt Q6P3R8); conditions: duplicate measurements, Km ATP
# Outline: as §1
# [16] = biological target: PRKX (Homo sapiens, UniProt P51817); conditions: duplicate measurements, Km ATP
# Outline: as §1
# [17] = biological target: TAOK2/TAO1 (Homo sapiens, UniProt Q9UL54); conditions: duplicate measurements, Km ATP
# Outline: as §1
# [18] = biological target: TAOK3/JIK (Homo sapiens, UniProt Q9H2K8); conditions: duplicate measurements, Km ATP
# Outline: as §1
# [19] = biological target: TESK2 (Homo sapiens, UniProt Q96S53); conditions: duplicate measurements, Km ATP
# Outline: as §1
# [20] = biological target: T4, c-MER (Homo sapiens, UniProt Q12866); conditions: duplicate measurements, Km ATP
# T4 construct: gene MERTK
# T4 sequence (Q12866 whole entry): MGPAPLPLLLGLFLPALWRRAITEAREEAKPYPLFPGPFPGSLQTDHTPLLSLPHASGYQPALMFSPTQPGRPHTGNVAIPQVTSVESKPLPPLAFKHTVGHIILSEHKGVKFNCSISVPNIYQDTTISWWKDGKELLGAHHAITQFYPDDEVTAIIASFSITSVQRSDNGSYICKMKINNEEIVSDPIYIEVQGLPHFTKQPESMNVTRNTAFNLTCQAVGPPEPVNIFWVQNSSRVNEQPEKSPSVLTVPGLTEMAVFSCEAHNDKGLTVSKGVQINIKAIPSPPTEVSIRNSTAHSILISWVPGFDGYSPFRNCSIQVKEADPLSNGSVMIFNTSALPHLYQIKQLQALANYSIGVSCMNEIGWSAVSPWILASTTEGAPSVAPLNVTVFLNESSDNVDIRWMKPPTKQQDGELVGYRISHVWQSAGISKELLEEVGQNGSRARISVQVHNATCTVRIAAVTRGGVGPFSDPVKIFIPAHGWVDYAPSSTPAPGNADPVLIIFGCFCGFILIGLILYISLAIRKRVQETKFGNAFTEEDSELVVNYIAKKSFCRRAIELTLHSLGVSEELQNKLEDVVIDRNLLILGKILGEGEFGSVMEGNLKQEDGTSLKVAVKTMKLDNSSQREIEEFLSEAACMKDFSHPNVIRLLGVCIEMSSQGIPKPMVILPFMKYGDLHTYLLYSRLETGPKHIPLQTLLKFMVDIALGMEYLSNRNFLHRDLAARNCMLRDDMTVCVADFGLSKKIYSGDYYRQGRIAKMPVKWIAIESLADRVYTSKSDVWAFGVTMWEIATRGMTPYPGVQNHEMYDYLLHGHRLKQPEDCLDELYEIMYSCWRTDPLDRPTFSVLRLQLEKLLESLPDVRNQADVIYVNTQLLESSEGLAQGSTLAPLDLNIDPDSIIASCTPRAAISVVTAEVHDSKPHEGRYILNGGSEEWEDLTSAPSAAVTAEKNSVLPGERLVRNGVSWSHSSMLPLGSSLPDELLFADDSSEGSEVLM
# Outline: as §1
# [21] = read-out: % Enzyme Activity (relative to DMSO controls) / TP-0005801 (0.3µM) / Data 1
# [22] = read-out: % Enzyme Activity (relative to DMSO controls) / TP-0005801 (0.3µM) / Data 2
compound,measurement,setting,value
COc1cc(N2CCN(C)CC2)c(C)cc1Nc1ncc(Br)c(Nc2cccnc2N(C)C)n1 [TP-5801],remaining activity at 0.3 µM,[1],14.2%
same,remaining activity at 0.3 µM,[2]; [21],78%
same,remaining activity at 0.3 µM,[2]; [22],76.5%
same,remaining activity at 0.3 µM,[3]; [21],99%
same,remaining activity at 0.3 µM,[3]; [22],97.4%
same,remaining activity at 0.3 µM,[4]; [21],69.8%
same,remaining activity at 0.3 µM,[4]; [22],68.6%
same,remaining activity at 0.3 µM,[5]; [21],100%
same,remaining activity at 0.3 µM,[5]; [22],97.5%
same,remaining activity at 0.3 µM,[6]; [21],92.6%
same,remaining activity at 0.3 µM,[6]; [22],89.8%
same,remaining activity at 0.3 µM,[7]; [21],122%
same,remaining activity at 0.3 µM,[7]; [22],117%
same,remaining activity at 0.3 µM,[8]; [21],107%
same,remaining activity at 0.3 µM,[8]; [22],105%
same,remaining activity at 0.3 µM,[9]; [21],79.6%
same,remaining activity at 0.3 µM,[9]; [22],78.6%
same,remaining activity at 0.3 µM,[10]; [21],90.6%
same,remaining activity at 0.3 µM,[10]; [22],89.2%
same,remaining activity at 0.3 µM,[11]; [21],101%
same,remaining activity at 0.3 µM,[11]; [22],99.2%
same,remaining activity at 0.3 µM,[12]; [21],86.8%
same,remaining activity at 0.3 µM,[12]; [22],81%
same,remaining activity at 0.3 µM,[13]; [21],93.8%
same,remaining activity at 0.3 µM,[13]; [22],90.8%
same,remaining activity at 0.3 µM,[14]; [21],89.8%
same,remaining activity at 0.3 µM,[14]; [22],89%
same,remaining activity at 0.3 µM,[15]; [21],98.5%
same,remaining activity at 0.3 µM,[15]; [22],96.9%
same,remaining activity at 0.3 µM,[16]; [21],93.7%
same,remaining activity at 0.3 µM,[16]; [22],92.5%
same,remaining activity at 0.3 µM,[17]; [21],86%
same,remaining activity at 0.3 µM,[17]; [22],84.4%
same,remaining activity at 0.3 µM,[18]; [21],88.2%
same,remaining activity at 0.3 µM,[18]; [22],86.8%
same,remaining activity at 0.3 µM,[19]; [21],92.8%
same,remaining activity at 0.3 µM,[19]; [22],90.1%
same,remaining activity at 0.3 µM,[20]; [21],106%
same,remaining activity at 0.3 µM,[20]; [22],104%
